The source of these data is BindingDB's records for doi:10.1021/jm0497242 (Leadscope, 2004).

In general, IC50 refers to the concentration at which inhibition is half-maximal.

This experiment addresses T1, Tyrosine-protein phosphatase non-receptor type 1 (Homo sapiens, UniProt P18031).
T1 sequence (P18031 whole entry): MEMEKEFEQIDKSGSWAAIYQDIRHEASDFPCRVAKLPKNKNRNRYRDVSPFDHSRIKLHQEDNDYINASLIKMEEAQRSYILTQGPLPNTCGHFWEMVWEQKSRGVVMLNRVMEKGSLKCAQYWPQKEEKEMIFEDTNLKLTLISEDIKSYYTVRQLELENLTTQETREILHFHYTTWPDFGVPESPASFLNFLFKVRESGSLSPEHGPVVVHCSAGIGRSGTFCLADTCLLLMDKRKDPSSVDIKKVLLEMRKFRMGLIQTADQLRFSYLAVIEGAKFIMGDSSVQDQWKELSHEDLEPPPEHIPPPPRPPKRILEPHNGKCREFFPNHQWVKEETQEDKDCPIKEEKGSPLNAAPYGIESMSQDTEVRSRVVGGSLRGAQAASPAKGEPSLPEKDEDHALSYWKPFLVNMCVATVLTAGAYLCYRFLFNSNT
In words: Concentration required for 50% inhibition of tyrosine phosphatase 1B.

The molecule `O=C(O)[C@@H](Cc1ccccc1)Oc1ccc(-c2ccc(-c3c(Cc4ccccc4)sc4ccccc34)cc2)cc1Br` gave an IC50 of 58.8 nM. That is a double-digit nanomolar value.

Regarding `O=C(O)c1cc(S(=O)(=O)Oc2ccc(-c3ccc(-c4c(Cc5ccccc5)oc5ccccc45)cc3)cc2)ccc1O` [5-[4''-(2-Benzyl-benzofuran-3-yl)-biphenyl-4-yloxysulfonyl]-2-hydroxy-benzoic acid], half-maximal inhibition (IC50) required 27.5 nM.

As to `O=C(O)CNc1cc(-c2ccc(-c3c(Cc4ccccc4)oc4ccccc34)cc2)ccc1OCCc1ccccc1` [[4'-(2-Benzyl-benzofuran-3-yl)-4-phenethyloxy-biphenyl-3-ylamino]-acetic acid], 83.1 nM corresponded to half-maximal inhibition (IC50).
